Legend:
[1] = system: HepG2 cells; assay: MTT cytotoxicity assay, HepG2; conditions: Homo sapiens, HepG2, 72 h, read-out: In Vitro Cytotoxicity IC50 HepG2
Method: (§1) The in vitro cytotoxic testing of novel derivatives was performed against different three cancer cell lines, HepG2, MCF-7, and HCT116, using standard MTT assay as previously reported [22, 62, 63, 64].

[2] = system: HCT116 cells; assay: MTT cytotoxicity assay, HCT116; conditions: Homo sapiens, HCT-116, 72 h, read-out: In Vitro Cytotoxicity IC50 HCT116
Method: as §1

[3] = system: MCF-7 cells; assay: MTT cytotoxicity assay, MCF-7; conditions: Homo sapiens, MCF7, 72 h, read-out: In Vitro Cytotoxicity IC50 MCF-7
Method: as §1

[4] = target: LSD1 demethylase (Homo sapiens, UniProt O60341); assay: LSD1 demethylase inhibition assay
Method: The inhibition of LSD1 activity by our tested compounds was evaluated according to a previously reported procedure [65, 66, 67, 68] and as mentioned in the assay kit in Supplementary Materials.

[5] = system: LSD1; conditions: Figure 1, reported LSD1 inhibitors; cited from earlier work
[6] = system: HepG2 and MCF-7 cells; assay: DNA fragmentation, diphenylamine test; type: cell-based, human; conditions: 24 h at IC50 value, untreated control about 4.7 ± 0.2%
Method: Apoptosis is characterized by DNA fragmentation, which occurs in all stages of the process. The percentage of fragmented DNA released into the cytoplasm from apoptotic nuclei was determined using a diphenylamine test.
DNA fragmentation was quantitatively determined using a diphenylamine (DPA) reagent according to the method of Boraschi and Maurizi.

[7] = in vitro; conditions: human, WI38 normal lung fibroblast cells
[8] = LSD1 inhibitory IC50, Table 2, mean ± S.D., at least three tests
[9] = LSD1 inhibition IC50, as quoted in the docking section

Row | SMILES | melting point [°C] | IC50 [4, 8] [µM] | IC50 [4, 9] [µM] | IC50 at 72 h [7] [µM] | IC50 [1] [µM] | IC50 [2] [µM] | IC50 [3] [µM] | IC50 [5] [µM] | Percentage of DNA fragmentation [6]
1 | Cn1c(-c2cc(-c3n[nH]c(=S)n3C)cc(-c3n[nH]c(=S)n3C)c2)n[nH]c1=S [Compound 18, 3,3′,3″-(benzene-1,3,5-triyl)tris(4-methyl-1H-1,2,4-triazole-5(4H)-thione)] | 279 to 281 | 1.51 ± 0.075 |  |  | 26.1 ± 0.76 | 38.6 ± 0.75 | 23.9 ± 0.52 |  | 
2 | Cc1ccc(Cn2cc(CSC(=S)N3CCN(C(=O)OC(C)(C)C)CC3)nn2)cc1 [Compound 8] |  |  |  |  |  |  |  | 0.65 | 
3 | CCn1c(-c2cc(-c3n[nH]c(=S)n3CC)cc(-c3n[nH]c(=S)n3CC)c2)n[nH]c1=S [Compound 19, 3,3′,3″-(benzene-1,3,5-triyl)tris(4-ethyl-1H-1,2,4-triazole-5(4H)-thione)] | 266 to 268 | 0.17 ± 0.008 |  |  | 55.3 ± 0.44 | 21.6 ± 0.16 | 9.66 ± 0.76 |  | 
4 | S=c1[nH]nc(-c2cc(-c3n[nH]c(=S)n3C3CCCCC3)cc(-c3n[nH]c(=S)n3C3CCCCC3)c2)n1C1CCCCC1 [Compound 20, 3,3′,3″-(benzene-1,3,5-triyl)tris(4-cyclohexyl-1H-1,2,4-triazole-5(4H)-thione)] | 251 to 252 | 0.137 ± 0.006 |  |  | 2.65 ± 0.69 | 10.1 ± 0.37 | 13.7 ± 0.41 |  | approximately 28.5 ± 1.5%
5 | CCCSc1nc(Sc2nnc(C)s2)c2nnn(CCO)c2n1 [Compound 7] |  |  |  |  |  |  |  | 3.93 | 
6 | C=CCn1c(-c2cc(-c3n[nH]c(=S)n3CC=C)cc(-c3n[nH]c(=S)n3CC=C)c2)n[nH]c1=S [Compound 21, 3,3′,3″-(benzene-1,3,5-triyl)tris(4-allyl-1H-1,2,4-triazole-5(4H)-thione)] | 287 to 288 | 0.32 ± 0.016 |  |  | 2.36 ± 0.34 | 3.56 ± 0.22 | 5.83 ± 0.18 |  | 

Second part, led by results:

Row | melting point [°C] | IC50 [4, 8] [µM] | IC50 [4, 9] [µM] | IC50 at 72 h [7] [µM] | SMILES | IC50 [1] [µM] | IC50 [2] [µM] | IC50 [3] [µM] | IC50 [5] [µM] | Percentage of DNA fragmentation [6]
7 | 233 to 234 | 0.14 ± 0.007 |  |  | CCNc1nnc(-c2cc(-c3nnc(NCC)s3)cc(-c3nnc(NCC)s3)c2)s1 [Compound 25, 5,5′,5″-(benzene-1,3,5-triyl)tris(N-ethyl-1,3,4-thiadiazol-2-amine)] | 13 ± 0.71 | 28.9 ± 0.32 | 28.1 ± 1.1 |  | 
8 | 229 to 230 | 0.065 ± 0.003 | 0.0651 |  | S=c1[nH]nc(-c2cc(-c3n[nH]c(=S)n3-c3ccccc3)cc(-c3n[nH]c(=S)n3-c3ccccc3)c2)n1-c1ccccc1 [Compound 23, 3,3′,3″-(benzene-1,3,5-triyl)tris(4-phenyl-1H-1,2,4-triazole-5(4H)-thione)] | 5.49 ± 0.38 | 2.01 ± 0.91 | 26.1 ± 0.69 |  | 
9 | 240 to 241 | 0.074 ± 0.002 | 0.0464 | 16 ± 0.52 | S=c1[nH]nc(-c2cc(-c3n[nH]c(=S)n3Cc3ccccc3)cc(-c3n[nH]c(=S)n3Cc3ccccc3)c2)n1Cc1ccccc1 [Compound 22, 3,3′,3″-(benzene-1,3,5-triyl)tris(4-benzyl-1H-1,2,4-triazole-5(4H)-thione)] | 8.23 ± 0.85 | 5.27 ± 0.16 | 2.65 ± 0.23 |  | 
10 | 204 to 205 | 0.21 ± 0.01 |  |  | c1ccc(Nc2nnc(-c3cc(-c4nnc(Nc5ccccc5)s4)cc(-c4nnc(Nc5ccccc5)s4)c3)s2)cc1 [Compound 28, 5,5′,5″-(benzene-1,3,5-triyl)tris(N-phenyl-1,3,4-thiadiazol-2-amine)] | 25.6 ± 0.18 | 110 ± 0.85 | 2.34 ± 2.3 |  | 
11 | 218 to 219 | 0.311 ± 0.015 |  |  | c1c(-c2nnc(NC3CCCCC3)s2)cc(-c2nnc(NC3CCCCC3)s2)cc1-c1nnc(NC2CCCCC2)s1 [Compound 26, 5,5′,5″-(benzene-1,3,5-triyl)tris(N-cyclohexyl-1,3,4-thiadiazol-2-amine)] | 95.7 ± 3.1 | 17.6 ± 0.71 | 17.1 ± 3.1 |  | 
12 |  |  |  | 11.8 ± 0.44 | CC(=O)O[C@H]1C(=O)[C@@]2(C)[C@H]([C@H](OC(=O)c3ccccc3)[C@]3(O)C[C@H](OC(=O)[C@H](O)[C@@H](NC(=O)c4ccccc4)c4ccccc4)C(C)=C1C3(C)C)[C@]1(OC(C)=O)CO[C@@H]1C[C@@H]2O [Taxol, reference compound] | 4.44 ± 0.24 | 7.96 ± 0.38 | 7.8 ± 0.42 |  | 
13 | 247 to 248 | 0.45 ± 0.022 |  |  | CNc1nnc(-c2cc(-c3nnc(NC)s3)cc(-c3nnc(NC)s3)c2)s1 [Compound 24, 5,5′,5″-(benzene-1,3,5-triyl)tris(N-methyl-1,3,4-thiadiazol-2-amine)] | 6.47 ± 0.69 | 18.1 ± 1.05 | 9.2 ± 0.31 |  | 
